The test system of experiment [1] is Tyk2 kinase activity on STAT4. Kind of experiment: pSTAT4 cell assay (MSD, NK92 cells). The experiment is classed as cell-based. Particulars: compounds 1 hr, stimulated 15 minutes. A digest of the protocol: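 Compound treatment of starved NK92 cells ran 1 hr before a 15-minute, 30 ng/mL IL2 pulse; lysates went to an MSD anti-STAT4 antibody assay, with curves fitted by 4-parameter logistic model.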

The target in experiment [2] is T1, JH2 domain of human Tyk2 (Homo sapiens, UniProt P29597).
T1 construct: 10×His-tagged TYK2 JH2 domain (amino acid 575-876)
The experiment can be described thus: JH2 biochemical assay (TR-FRET probe displacement). The note with it: JH2 biochemical assay. The experiment is classed as binding. A digest of the protocol:
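A probe-displacement TR-FRET readout: compounds, tested in 3-fold, 10-point dilutions starting at […], compete with 2 nM tracer for 2 nM His-tagged JH2 (residues 575-876) detected by 0.1 nM Tb-anti-His over 60 min. IC50 comes from 4-parameter fits of normalized 520/495 nm ratios.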

Where a name gives a salt, the structure may show the parent alone.

T1 sequence (P29597 575-876): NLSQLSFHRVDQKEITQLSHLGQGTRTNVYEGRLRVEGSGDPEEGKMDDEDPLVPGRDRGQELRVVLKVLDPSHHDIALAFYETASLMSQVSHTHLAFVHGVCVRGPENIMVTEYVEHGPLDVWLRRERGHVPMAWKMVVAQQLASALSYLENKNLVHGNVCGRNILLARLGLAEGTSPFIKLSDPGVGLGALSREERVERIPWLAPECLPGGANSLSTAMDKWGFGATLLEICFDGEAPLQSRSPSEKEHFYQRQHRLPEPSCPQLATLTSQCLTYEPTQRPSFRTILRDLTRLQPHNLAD

In the case of `CCn1cc(-c2cc(C)cc(N3CC4(CC4)c4cnc(NC(C)=O)cc43)n2)cn1` [Example 260, N-(1′-(6-(1-ethyl-1H-pyrazol-4-yl)-4-methylpyridin-2-yl)-1′,2′-dihydrospiro[cyclopropane-1,3′-pyrrolo[3,2-c]pyridin]-6′-yl)acetamide trifluoroacetate], the IC50 in experiment [1] was at least 1000 nM; in experiment [2] it was 10 to 100 nM.
Consider `CC(=O)Nc1cc2c(cn1)C1(CC1)CN2c1cc(C)cc(-c2cnn(C(C)C)c2)n1` [Example 263, N-(1′-(6-(1-isopropyl-1H-pyrazol-4-yl)-4-methylpyridin-2-yl)-1′,2′-dihydrospiro[cyclopropane-1,3′-pyrrolo[3,2-c]pyridin]-6′-yl)acetamide trifluoroacetate], for which the IC50 in experiment [1] is at least 1000 nM; in experiment [2], 10 to 100 nM.
With `CC(=O)Nc1cc2c(cn1)C1(CC1)CN2c1cc(C)cc(-c2cnn(C3CC3)c2)n1` [Example 264, N-(1′-(6-(1-cyclopropyl-1H-pyrazol-4-yl)-4-methylpyridin-2-yl)-1′,2′-dihydrospiro[cyclopropane-1,3′-pyrrolo[3,2-c]pyridin]-6′-yl)acetamide trifluoroacetate], the IC50 in experiment [1] is at least 1000 nM; in experiment [2] it was 10 to 100 nM.
The corresponding values for `CC(=O)Nc1cc2c(cn1)C1(CC1)CN2c1cc(N)nc(C(C)(F)F)n1` [Example 273, N-(1′-(6-amino-2-(1,1-difluoroethyl)pyrimidin-4-yl)-1′,2′-dihydrospiro[cyclopropane-1,3′-pyrrolo[3,2-c]pyridin]-6′-yl)acetamide trifluoroacetate] are 10 to 100 nM and at most 10 nM.
Taken in the same sequence, the figures for `CC(=O)Nc1cc2c(cn1)C1(CC1)CN2c1cc(C)cc(N2CC3CCN(C)C3C2)n1` (stereo not drawn) [Example 277, N-(1′-(4-methyl-6-(1-methylhexahydropyrrolo[3,4-b]pyrrol-5(1H)-yl)pyridin-2-yl)-1′,2′-dihydrospiro[cyclopropane-1,3′-pyrrolo[3,2-c]pyridin]-6′-yl)acetamide trifluoroacetate] were at least 1000 nM and 100 to 1000 nM.
For `Cc1cc(N2CC3(CC3)c3cnc(NC(=O)N(C)C)cc32)nc(C(C)(F)F)n1` [Example 278, 3-(1′-(2-(1,1-difluoroethyl)-6-methylpyrimidin-4-yl)-1′,2′-dihydrospiro[cyclopropane-1,3′-pyrrolo[3,2-c]pyridin]-6′-yl)-1,1-dimethylurea], the IC50 in experiment [1] was at least 1000 nM; in experiment [2], 100 to 1000 nM.
Take `CC(=O)Nc1cc2c(cn1)C1(CC1)CN2c1cc(C)cc(C2(F)CC2)n1` [Example 279, N-(1′-(6-(1-fluorocyclopropyl)-4-methylpyridin-2-yl)-1′,2′-dihydrospiro[cyclopropane-1,3′-pyrrolo[3,2-c]pyridin]-6′-yl)acetamide]: the IC50 is 100 to 1000 nM in experiment [1] and 10 to 100 nM in experiment [2].
The corresponding values for `CC(=O)Nc1cc2c(cn1)C1(CC1)CN2c1cc(C(C)(F)F)ncn1` [Example 280, N-(1′-(6-(1,1-difluoroethyl)pyrimidin-4-yl)-1′,2′-dihydrospiro[cyclopropane-1,3′-pyrrolo[3,2-c]pyridin]-6′-yl)acetamide] are at least 1000 nM and 100 to 1000 nM.
The corresponding values for `CCOC(=O)C(F)(F)c1nc(C)cc(N2CC3(CC3)c3cnc(NC(C)=O)cc32)n1` [Example 281, Ethyl 2-(4-(6′-acetamidospiro[cyclopropane-1,3′-pyrrolo[3,2-c]pyridin]-1′(2′H)-yl)-6-methylpyrimidin-2-yl)-2,2-difluoroacetate] are at least 1000 nM and 100 to 1000 nM.
The corresponding values for `CC(=O)Nc1cc2c(cn1)C1(CC1)CN2c1cc(C(C)(F)F)nc(Cl)n1` [Example 282, N-(1′-(2-chloro-6-(1,1-difluoroethyl)pyrimidin-4-yl)-1′,2′-dihydrospiro[cyclopropane-1,3′-pyrrolo[3,2-c]pyridin]-6′-yl)acetamide] are at least 1000 nM and 100 to 1000 nM.
`CC(=O)Nc1cc2c(cn1)C1(CC1)CN2c1cc(Cl)nc(C(C)(C)F)n1` [Example 283, N-(1′-(6-chloro-2-(2-fluoropropan-2-yl)pyrimidin-4-yl)-1′,2′-dihydrospiro[cyclopropane-1,3′-pyrrolo[3,2-c]pyridin]-6′-yl)acetamide]: the results for the IC50 in experiment [1] and in experiment [2] were 100 to 1000 nM and at most 10 nM, respectively.
Taken in the same sequence, the figures for `CC(=O)Nc1cc2c(cn1)C1(CC1)CN2c1cc(NC2CC2)nc(C(C)(F)F)n1` [Example 284, N-(1′-(6-(cyclopropylamino)-2-(1,1-difluoroethyl)pyrimidin-4-yl)-1′,2′-dihydrospiro[cyclopropane-1,3′-pyrrolo[3,2-c]pyridin]-6′-yl)acetamide trifluoroacetate] were 10 to 100 nM and at most 10 nM.
In the case of `CC(=O)Nc1cc2c(cn1)C1(CC1)CN2c1cc(NC2COC2)nc(C(C)(F)F)n1` [Example 285, N-(1′-(2-(1,1-difluoroethyl)-6-(oxetan-3-ylamino)pyrimidin-4-yl)-1′,2′-dihydrospiro[cyclopropane-1,3′-pyrrolo[3,2-c]pyridin]-6′-yl)acetamide], the IC50 in experiment [1] is 10 to 100 nM; in experiment [2], at most 10 nM.
Take `CC(=O)Nc1cc2c(cn1)C1(CC1)CN2c1cc(C)nc(OCC(C)(C)O)n1` [Example 286, N-(1′-(2-(2-hydroxy-2-methylpropoxy)-6-methylpyrimidin-4-yl)-1′,2′-dihydrospiro[cyclopropane-1,3′-pyrrolo[3,2-c]pyridin]-6′-yl)acetamide]: the results for the IC50 in experiment [1] and in experiment [2] were 100 to 1000 nM and 10 to 100 nM, respectively.
The corresponding values for `COCCOc1nc(N2CC3(CC3)c3cnc(NC(C)=O)cc32)cc(C(C)(F)F)n1` [Example 287, N-(1′-(6-(1,1-difluoroethyl)-2-(2-methoxyethoxy)pyrimidin-4-yl)-1′,2′-dihydrospiro[cyclopropane-1,3′-pyrrolo[3,2-c]pyridin]-6′-yl)acetamide] are 100 to 1000 nM and at most 10 nM.
Taken in the same sequence, the figures for `CC(=O)Nc1cc2c(cn1)C1(CC1)CN2c1cc(C)nc(OCCF)n1` [Example 288, N-(1′-(2-(2-fluoroethoxy)-6-methylpyrimidin-4-yl)-1′,2′-dihydrospiro[cyclopropane-1,3′-pyrrolo[3,2-c]pyridin]-6′-yl)acetamide] were 100 to 1000 nM and at most 10 nM.
With `CC(=O)Nc1cc2c(cn1)C1(CC1)CN2c1cc(C)nc(C(F)(F)CO)n1` [Example 289, N-(1′-(2-(1,1-difluoro-2-hydroxyethyl)-6-methylpyrimidin-4-yl)-1′,2′-dihydrospiro[cyclopropane-1,3′-pyrrolo[3,2-c]pyridin]-6′-yl)acetamide], the IC50 is 10 to 100 nM in experiment [1] and at most 10 nM in experiment [2].
Taken in the same sequence, the figures for `CC(=O)Nc1cc2c(cn1)C1(CC1)CN2c1cc(C)cc(C(F)(F)CO)n1` [Example 290, N-(1′-(6-(1,1-difluoro-2-hydroxyethyl)-4-methylpyridin-2-yl)-1′,2′-dihydrospiro[cyclopropane-1,3′-pyrrolo[3,2-c]pyridin]-6′-yl)acetamide] were 10 to 100 nM and at most 10 nM.
The corresponding values for `CCOC(=O)c1cc(N2CC3(CC3)c3cnc(NC(C)=O)cc32)nc(C(C)(F)F)n1` [Example 291, Ethyl 6-(6′-acetamidospiro[cyclopropane-1,3′-pyrrolo[3,2-c]pyridin]-1′(2′H)-yl)-2-(1,1-difluoroethyl)pyrimidine-4-carboxylate] are 100 to 1000 nM and at most 10 nM.
Take `CC(=O)Nc1cc2c(cn1)C1(CC1)CN2c1cc(C(C)O)nc(C(C)(F)F)n1` (stereo not drawn) [Example 293, N-(1′-(2-(1,1-difluoroethyl)-6-(1-hydroxyethyl)pyrimidin-4-yl)-1′,2′-dihydrospiro[cyclopropane-1,3′-pyrrolo[3,2-c]pyridin]-6′-yl)acetamide]: the IC50 in experiment [1] is 100 to 1000 nM; in experiment [2], at most 10 nM.
As for `CC(=O)Nc1cc2c(cn1)C1(CC1)CN2c1cc(C(=O)O)nc(C(C)(F)F)n1` [Example 294, 6-(6′-acetamidospiro[cyclopropane-1,3′-pyrrolo[3,2-c]pyridin]-1′(2′H)-yl)-2-(1,1-difluoroethyl)pyrimidine-4-carboxylic acid], the results for the IC50 in experiment [1] and in experiment [2] were at least 1000 nM and 10 to 100 nM, respectively.
The corresponding values for `CC(=O)Nc1cc2c(cn1)C1(CC1)CN2c1cc(C2=COCC2)nc(C(C)(F)F)n1` [Example 296, N-(1′-(2-(1,1-difluoroethyl)-6-(4,5-dihydrofuran-3-yl)pyrimidin-4-yl)-1′,2′-dihydrospiro[cyclopropane-1,3′-pyrrolo[3,2-c]pyridin]-6′-yl)acetamide trifluoroacetate] are 100 to 1000 nM and at most 10 nM.
As to `CC(=O)Nc1cc2c(cn1)C1(CC1)CN2c1cc(C2CCOC2)nc(C(C)(F)F)n1` (stereo not drawn) [Example 297, N-(1′-(2-(1,1-difluoroethyl)-6-(tetrahydrofuran-3-yl)pyrimidin-4-yl)-1′,2′-dihydrospiro[cyclopropane-1,3′-pyrrolo[3,2-c]pyridin]-6′-yl)acetamide trifluoroacetate], the values for the IC50 in experiment [1] and in experiment [2] were 100 to 1000 nM and at most 10 nM, respectively.
The corresponding values for `CNCc1cc(N2CC3(CC3)c3cnc(NC(C)=O)cc32)nc(C(C)(F)F)n1` [Example 298, N-(1′-(2-(1,1-difluoroethyl)-6-((methylamino)methyl)pyrimidin-4-yl)-1′,2′-dihydrospiro[cyclopropane-1,3′-pyrrolo[3,2-c]pyridin]-6′-yl)acetamide] are at least 1000 nM and 10 to 100 nM.

By IC50 is commonly meant the concentration that gives 50% inhibition.

(Values after patent US20260258032A1, “TYROSINE KINASE 2 INHIBITORS AND USES THEREOF” (BIOGEN MA INC., priority 2022, published 2026).)
